Where “and” joins values, the source holds several entries; their conditions need not be identical. Equal entries are not always repeated. Toxic doses and inconclusive results are not listed. No stated cut-off is given here; in the data, active means T/C of 150% or more; inactive means T/C below 125%.
Test system: L1210 leukemia ip in BDF1 mice, survival T/C
Experiment: NCI In Vivo Anticancer Drug Screen. Data for tumor model L1210 Leukemia (intraperitoneal) in B6D2F1 (BDF1) mice
Conditions: endpoint: mean survival time, higher = longer survival
Procedure, shortened: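 Read-out is survival time, reported as the treated-group measurement over the vehicle-control measurement.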

[1] = dose: 25.0 mg/kg/injection, schedule: Q01DX009 (ip), vehicle: Klucel (hydroxypropylcellulose) (HPC)
[2] = dose: 25.0 mg/kg/injection, schedule: Q01DX009 (ip), vehicle: saline
[3] = dose: 50.0 mg/kg/injection, schedule: Q01DX009 (ip), vehicle: Klucel (hydroxypropylcellulose) (HPC)
[4] = dose: 50.0 mg/kg/injection, schedule: Q01DX009 (ip), vehicle: saline
[5] = dose: 100.0 mg/kg/injection, schedule: Q01DX009 (ip), vehicle: Klucel (hydroxypropylcellulose) (HPC)
[6] = dose: 100.0 mg/kg/injection, schedule: Q04DX003 (ip), vehicle: Klucel (hydroxypropylcellulose) (HPC)
[7] = dose: 200.0 mg/kg/injection, schedule: Q04DX003 (ip), vehicle: Klucel (hydroxypropylcellulose) (HPC)
[8] = dose: 400.0 mg/kg/injection, schedule: Q04DX003 (ip), vehicle: Klucel (hydroxypropylcellulose) (HPC)
[9] = dose: 100.0 mg/kg/injection, schedule: Q04DX002 (ip), vehicle: Klucel (hydroxypropylcellulose) (HPC)
[10] = dose: 100.0 mg/kg/injection, schedule: Q01DX001 (ip), vehicle: carboxymethylcellulose (CMC)
[11] = dose: 200.0 mg/kg/injection, schedule: Q01DX001 (ip), vehicle: carboxymethylcellulose (CMC)
[12] = dose: 400.0 mg/kg/injection, schedule: Q01DX001 (ip), vehicle: carboxymethylcellulose (CMC)
[13] = dose: 100.0 mg/kg/injection, schedule: Q01DX009 (ip), vehicle: saline with Tween-80
[14] = dose: 200.0 mg/kg/injection, schedule: Q01DX009 (ip), vehicle: saline with Tween-80
[15] = dose: 400.0 mg/kg/injection, schedule: Q01DX009 (ip), vehicle: saline with Tween-80
[16] = dose: 100.0 mg/kg/injection, schedule: Q04DX003 (ip), vehicle: saline with Tween-80
[17] = dose: 200.0 mg/kg/injection, schedule: Q04DX003 (ip), vehicle: saline with Tween-80
[18] = dose: 400.0 mg/kg/injection, schedule: Q04DX003 (ip), vehicle: saline with Tween-80
[19] = dose: 100.0 mg/kg/injection, schedule: Q01DX001 (ip), vehicle: saline
[20] = dose: 400.0 mg/kg/injection, schedule: Q01DX001 (ip), vehicle: saline
[21] = dose: 200.0 mg/kg/injection, schedule: Q01DX009 (ip), vehicle: Klucel (hydroxypropylcellulose) (HPC)
[22] = dose: 400.0 mg/kg/injection, schedule: Q01DX009 (ip), vehicle: Klucel (hydroxypropylcellulose) (HPC)

Measured: T/C

COc1ccc(CNC(C)(C)CO)c(OC)c1
inactive: dose: 75.0 mg/kg/injection, schedule: Q01DX001 (ip), vehicle: saline 101 % of control | dose: 150.0 mg/kg/injection, schedule: Q01DX001 (ip), vehicle: saline 102 % of control | dose: 300.0 mg/kg/injection, schedule: Q01DX001 (ip), vehicle: saline 98 % of control

ClC1=C(Cl)C(Cl)(Cl)C(Cl)(Cl)C1(Cl)Cl
inactive: dose: 12.5 mg/kg/injection, schedule: Q01DX009 (ip), vehicle: saline 99 % of control | [1] 92 % of control | [2] 95 % of control | [3] 96 % of control | [4] 97 % of control | [5] 87 % of control | [6] 104 % of control | [7] 96 % of control | [8] 102 % of control

O=[N+]([O-])c1ccc(OC(=S)N2CCOCC2)cc1
inactive: dose: 100.0 mg/kg/injection, schedule: Q04DX002 (ip), vehicle: saline with Tween-80 104 % of control | dose: 200.0 mg/kg/injection, schedule: Q04DX002 (ip), vehicle: saline with Tween-80 104 % of control | dose: 400.0 mg/kg/injection, schedule: Q04DX002 (ip), vehicle: saline with Tween-80 101 % of control

c1ccc2c(c1)CNCc1ccccc1-2
inactive: [2] 92 % of control | [4] 105 % of control | dose: 100.0 mg/kg/injection, schedule: Q01DX009 (ip), vehicle: saline 96 % of control | dose: 100.0 mg/kg/injection, schedule: Q04DX003 (ip), vehicle: saline 105 % of control

CC/C(N)=C\C(=O)c1ccccc1
inactive: [9] 102 % of control | dose: 200.0 mg/kg/injection, schedule: Q04DX002 (ip), vehicle: Klucel (hydroxypropylcellulose) (HPC) 105 % of control | dose: 400.0 mg/kg/injection, schedule: Q04DX002 (ip), vehicle: Klucel (hydroxypropylcellulose) (HPC) 98 % of control

CCOC(=O)NNP(=O)(NNC(=O)OCC)c1ccccc1
inactive: [10] 101 % of control | dose: 100.0 mg/kg/injection, schedule: Q01DX009 (ip), vehicle: carboxymethylcellulose (CMC) 94 % of control | dose: 100.0 mg/kg/injection, schedule: Q04DX002 (ip), vehicle: carboxymethylcellulose (CMC) 98 % of control | dose: 100.0 mg/kg/injection, schedule: Q04DX003 (ip), vehicle: carboxymethylcellulose (CMC) 98 % of control | [11] 104 % of control | dose: 200.0 mg/kg/injection, schedule: Q01DX009 (ip), vehicle: carboxymethylcellulose (CMC) 94 % of control and 98 % of control | dose: 200.0 mg/kg/injection, schedule: Q04DX002 (ip), vehicle: carboxymethylcellulose (CMC) 91 % of control | dose: 200.0 mg/kg/injection, schedule: Q04DX003 (ip), vehicle: carboxymethylcellulose (CMC) 102 % of control | [12] 92 % of control | dose: 400.0 mg/kg/injection, schedule: Q01DX009 (ip), vehicle: carboxymethylcellulose (CMC) 108 % of control and 109 % of control | dose: 400.0 mg/kg/injection, schedule: Q04DX002 (ip), vehicle: carboxymethylcellulose (CMC) 94 % of control | dose: 400.0 mg/kg/injection, schedule: Q04DX003 (ip), vehicle: carboxymethylcellulose (CMC) 101 % of control

CC1(C(=O)O)CC(Cl)=CCC1C(=O)O (centres undefined)
inactive: dose: 100.0 mg/kg/injection, schedule: Q01DX001 (ip), vehicle: steriod suspending solution 105 % of control | dose: 200.0 mg/kg/injection, schedule: Q01DX001 (ip), vehicle: steriod suspending solution 103 % of control | dose: 400.0 mg/kg/injection, schedule: Q01DX001 (ip), vehicle: steriod suspending solution 97 % of control

OC(Cc1cnc2ccccc2n1)(C(F)(F)F)C(F)(F)F
inactive: [13] 98 % of control | [14] 94 % of control | [15] 95 % of control

Nc1cccc2c1/C(=N/O)c1ccccc1-2
inactive: [10] 98 % of control | [11] 100 % of control | [12] 98 % of control

O=[N+]([O-])c1ncn(Cc2ccccc2)c1Br
inactive: [6] 91 % of control | [7] 94 % of control | [8] 89 % of control

O=[N+]([O-])c1ccc2cnn(CN3CCCCC3)c2c1
inactive: [10] 98 % of control | [12] 98 % of control

COc1cc(OC)c(NC(=O)NC(C)C)cc1Cl
inactive: [16] 98 % of control | [17] 89 % of control | [18] 88 % of control

O=C1CCCC(=O)C1C(C[N+](=O)[O-])c1ccccc1 (centres undefined)
inactive: dose: 12.5 mg/kg/injection, schedule: Q01DX009 (ip), vehicle: Klucel (hydroxypropylcellulose) (HPC) 97 % of control | [1] 93 % of control | [3] 90 % of control | [5] 88 % of control | [6] 98 % of control

COc1ccc(CNc2ccccc2C(=O)O)cc1OC
inactive: [19] 91 % of control | [20] 103 % of control

CCOC(=O)NNC(=O)c1ccccc1N(C)C
inactive: [5] 94 % of control | [6] 101 % of control | [21] 91 % of control | [7] 101 % of control | [22] 97 % of control | [8] 95 % of control

COc1ccccc1/C=C(\C#N)c1cccc2ccccc12
inactive: dose: 25.0 mg/kg/injection, schedule: Q04DX002 (ip), vehicle: Klucel (hydroxypropylcellulose) (HPC) 118 % of control | dose: 50.0 mg/kg/injection, schedule: Q04DX002 (ip), vehicle: Klucel (hydroxypropylcellulose) (HPC) 93 % of control | [5] 94 % of control | [9] 107 % of control | [21] 89 % of control | [22] 90 % of control

CCN(CC)CC(OC)C(COC)OC(=O)C(c1ccccc1)c1ccccc1 (centres undefined)
inactive: dose: 13.0 mg/kg/injection, schedule: Q01DX Z (ip), vehicle: saline 105 % of control | dose: 20.0 mg/kg/injection, schedule: Q01DX Z (ip), vehicle: saline 98 % of control | dose: 30.0 mg/kg/injection, schedule: Q01DX Z (ip), vehicle: saline 102 % of control

O=C(O)C1c2ccccc2-c2ccccc21
inactive: [19] 113 % of control | dose: 200.0 mg/kg/injection, schedule: Q01DX001 (ip), vehicle: saline 91 % of control | [20] 101 % of control

CC(=O)Oc1ccc(C2C3=C(COC3=O)CC3=C2C(=O)OC3)cc1
inactive: [13] 104 % of control | [16] 96 % of control | [14] 100 % of control | [17] 97 % of control | [15] 96 % of control | [18] 96 % of control

CN(Nc1c([N+](=O)[O-])cc([N+](=O)[O-])cc1[N+](=O)[O-])c1ccc2ccccc2c1
inactive: [3] 103 % of control | [5] 95 % of control | [6] 95 % of control | [21] 95 % of control | [7] 92 % of control | [22] 98 % of control | [8] 95 % of control

CCn1c(=O)c2ccccc2c2cc([N+](=O)[O-])ccc21
inactive: [6] 90 % of control | [7] 97 % of control | [8] 97 % of control

CC(=O)Nc1cccc(C(C)=O)c1[N+](=O)[O-]
inactive: [16] 100 % of control | [17] 94 % of control | [18] 100 % of control

c1ccc(Oc2ccc(-c3ccc(Oc4ccccc4)cc3)cc2)cc1
inactive: [13] 91 % of control | [15] 91 % of control

Nc1nc(N)c2c(n1)CCCC2
inactive: dose: 12.5 mg/kg/injection, schedule: Q04DX003 (ip), vehicle: saline with Tween-80 95 % of control | dose: 25.0 mg/kg/injection, schedule: Q04DX003 (ip), vehicle: saline with Tween-80 93 % of control | dose: 50.0 mg/kg/injection, schedule: Q04DX003 (ip), vehicle: saline with Tween-80 91 % of control

O=C(CBr)c1ccc(I)cc1
inactive: dose: 3.13 mg/kg/injection, schedule: Q01DX009 (ip), vehicle: saline with Tween-80 92 % of control | dose: 6.25 mg/kg/injection, schedule: Q01DX009 (ip), vehicle: saline with Tween-80 95 % of control | dose: 12.5 mg/kg/injection, schedule: Q01DX009 (ip), vehicle: saline with Tween-80 97 % of control | dose: 25.0 mg/kg/injection, schedule: Q01DX009 (ip), vehicle: saline with Tween-80 100 % of control | [10] 91 % of control | [11] 101 % of control

N#CC1(c2ccccc2)CC(C(=O)c2ccccc2)C(O)(c2ccccc2)CC1c1ccccc1 (centres undefined)
inactive: dose: 50.0 mg/kg/injection, schedule: Q01DX009 (ip), vehicle: saline with Tween-80 101 % of control | [13] 108 % of control | [14] 101 % of control
